Article PMC7714403 (JCI Insight, 2020)
Read-outs that look alike come from different tables or passages of the source.

Experiments:
Assay in all cases: KiNativ, MOLM13 live cells
Format in all cases: cell-based
CDK4 = CDK4 (Homo sapiens, UniProt P11802); conditions: MOLM-13; 100 nM, 2 hours; Lys2; read-out: Inhibition vs DMSO
Method: (§1) Samples were analyzed by KiNativ in situ kinase profiling by ActivX Biosciences.

ULK1 = molecular target: T1, ULK1 (Homo sapiens, UniProt O75385); conditions: 100 nM, 2 hours; Lys2
T1 sequence (O75385 1-1050): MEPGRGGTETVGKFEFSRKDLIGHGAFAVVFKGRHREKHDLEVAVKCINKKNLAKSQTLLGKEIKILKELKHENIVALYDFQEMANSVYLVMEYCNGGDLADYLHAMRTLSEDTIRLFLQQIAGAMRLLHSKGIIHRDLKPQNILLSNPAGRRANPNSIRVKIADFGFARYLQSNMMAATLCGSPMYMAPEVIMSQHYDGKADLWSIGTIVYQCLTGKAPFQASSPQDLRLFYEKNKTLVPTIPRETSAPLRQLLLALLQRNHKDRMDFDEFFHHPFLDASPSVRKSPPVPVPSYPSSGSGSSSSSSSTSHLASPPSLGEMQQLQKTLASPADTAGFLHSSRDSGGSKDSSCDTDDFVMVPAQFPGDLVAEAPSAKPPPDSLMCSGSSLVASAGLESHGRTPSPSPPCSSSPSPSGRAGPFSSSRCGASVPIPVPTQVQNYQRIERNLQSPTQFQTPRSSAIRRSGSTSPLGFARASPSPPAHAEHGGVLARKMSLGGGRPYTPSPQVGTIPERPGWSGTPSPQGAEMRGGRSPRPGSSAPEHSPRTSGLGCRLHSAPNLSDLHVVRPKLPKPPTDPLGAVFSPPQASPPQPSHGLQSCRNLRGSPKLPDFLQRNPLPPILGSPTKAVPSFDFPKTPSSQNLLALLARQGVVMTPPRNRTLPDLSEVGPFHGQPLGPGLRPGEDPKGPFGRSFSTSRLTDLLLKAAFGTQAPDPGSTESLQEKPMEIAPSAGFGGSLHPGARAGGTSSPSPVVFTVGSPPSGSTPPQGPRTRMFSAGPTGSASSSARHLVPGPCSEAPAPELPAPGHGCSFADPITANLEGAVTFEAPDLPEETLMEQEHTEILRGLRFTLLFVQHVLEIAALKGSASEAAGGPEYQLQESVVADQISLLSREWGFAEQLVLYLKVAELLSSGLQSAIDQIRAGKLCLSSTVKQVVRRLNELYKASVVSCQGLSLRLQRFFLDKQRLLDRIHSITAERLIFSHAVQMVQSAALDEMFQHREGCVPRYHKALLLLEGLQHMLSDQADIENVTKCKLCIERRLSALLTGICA
Method: as §1

RSK2 domain1 = molecular target: T2, RSK2 domain1 (Homo sapiens, UniProt P51812); conditions: MOLM-13, 2 h, 100 nM
T2 construct: RSK2 domain1
T2 sequence (P51812 whole entry, the tested form may be a part): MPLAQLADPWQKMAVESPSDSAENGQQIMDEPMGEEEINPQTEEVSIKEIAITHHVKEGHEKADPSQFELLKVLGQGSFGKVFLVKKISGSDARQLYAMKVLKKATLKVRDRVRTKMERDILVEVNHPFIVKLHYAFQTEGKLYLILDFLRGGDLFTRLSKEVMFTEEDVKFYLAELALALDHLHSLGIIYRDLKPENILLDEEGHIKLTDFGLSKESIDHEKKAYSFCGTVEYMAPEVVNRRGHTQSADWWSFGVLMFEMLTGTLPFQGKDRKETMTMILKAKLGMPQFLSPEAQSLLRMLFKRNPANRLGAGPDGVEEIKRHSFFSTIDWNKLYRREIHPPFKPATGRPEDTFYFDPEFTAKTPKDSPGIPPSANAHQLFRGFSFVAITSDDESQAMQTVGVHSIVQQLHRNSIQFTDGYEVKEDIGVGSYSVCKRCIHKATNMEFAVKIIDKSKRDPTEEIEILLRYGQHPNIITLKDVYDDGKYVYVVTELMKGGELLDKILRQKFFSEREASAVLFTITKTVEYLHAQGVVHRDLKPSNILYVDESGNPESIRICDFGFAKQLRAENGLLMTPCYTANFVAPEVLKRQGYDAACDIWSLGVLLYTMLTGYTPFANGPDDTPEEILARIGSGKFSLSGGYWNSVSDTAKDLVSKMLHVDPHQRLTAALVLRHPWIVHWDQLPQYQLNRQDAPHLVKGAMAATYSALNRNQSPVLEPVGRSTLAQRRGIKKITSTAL
Method: as §1

PAN3 = molecular target: T3, PAN3 (Homo sapiens, UniProt Q58A45); conditions: MOLM-13, 2 h, 100 nM, ATP, read-out: Inhibition vs DMSO
T3 sequence (Q58A45 1-887): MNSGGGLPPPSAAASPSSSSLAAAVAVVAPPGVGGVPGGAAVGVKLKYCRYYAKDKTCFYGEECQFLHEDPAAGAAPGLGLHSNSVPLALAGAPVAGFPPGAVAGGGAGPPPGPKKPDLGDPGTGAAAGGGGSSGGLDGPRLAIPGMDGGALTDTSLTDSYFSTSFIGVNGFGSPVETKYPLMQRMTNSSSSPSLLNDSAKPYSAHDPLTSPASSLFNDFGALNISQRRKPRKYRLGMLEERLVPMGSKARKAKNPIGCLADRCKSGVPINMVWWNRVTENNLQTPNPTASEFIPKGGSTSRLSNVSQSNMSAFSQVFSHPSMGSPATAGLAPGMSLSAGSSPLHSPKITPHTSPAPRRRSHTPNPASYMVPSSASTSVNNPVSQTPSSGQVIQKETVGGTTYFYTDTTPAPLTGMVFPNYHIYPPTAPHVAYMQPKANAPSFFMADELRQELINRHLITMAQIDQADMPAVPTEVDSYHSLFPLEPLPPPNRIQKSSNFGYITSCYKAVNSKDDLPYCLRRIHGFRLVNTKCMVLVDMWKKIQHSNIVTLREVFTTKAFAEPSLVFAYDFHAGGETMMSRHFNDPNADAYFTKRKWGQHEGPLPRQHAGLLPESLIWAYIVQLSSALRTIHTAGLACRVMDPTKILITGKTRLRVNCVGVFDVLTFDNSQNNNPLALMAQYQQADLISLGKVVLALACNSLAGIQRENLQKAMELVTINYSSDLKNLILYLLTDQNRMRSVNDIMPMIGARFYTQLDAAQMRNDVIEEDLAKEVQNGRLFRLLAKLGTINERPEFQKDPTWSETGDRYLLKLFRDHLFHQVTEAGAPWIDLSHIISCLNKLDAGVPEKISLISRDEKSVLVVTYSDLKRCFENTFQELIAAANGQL
Method: as §1

CDK4, sequence (P11802 2-303 limits assumed): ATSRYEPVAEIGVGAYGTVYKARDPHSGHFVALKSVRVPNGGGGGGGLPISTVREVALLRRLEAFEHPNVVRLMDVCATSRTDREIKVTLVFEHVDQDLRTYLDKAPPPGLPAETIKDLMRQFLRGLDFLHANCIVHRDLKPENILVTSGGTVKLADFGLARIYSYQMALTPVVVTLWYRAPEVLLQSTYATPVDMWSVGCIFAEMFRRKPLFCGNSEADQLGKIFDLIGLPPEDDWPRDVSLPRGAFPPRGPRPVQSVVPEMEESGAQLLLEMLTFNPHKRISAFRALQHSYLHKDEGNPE

CN1CCN(Cc2ccc(Nc3ncc(Cl)c(Nc4ccccc4S(=O)(=O)N(C)C)n3)cc2)CC1 [TP-0903]
inhibition at 0.1 µM (CDK4): 9.8% | Inhibition vs DMSO (ULK1): 45.8% | inhibition at 0.1 µM (RSK2 domain1; Activation Loop, read-out: Inhibition vs DMSO): 22.7% | inhibition at 0.1 µM (RSK2 domain1; Lys2, read-out: Inhibition vs DMSO): -0.9% | inhibition at 0.1 µM (PAN3; IQKSSNFGYITSCYK): 11.2% | inhibition at 0.1 µM (PAN3; VMDPTKILITGK): -0.5%
